Values joined by “and” are separate entries in the source; they are usually repeats but may differ in a detail not shown here. Identical values can stand only once.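 Each compound was tested at five concentrations against cells in 96-well plates for 48 hours. GI50 is the concentration that inhibits growth by half. TGI is the concentration that stops growth completely.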
Experiments:
Assay in all cases: DTP human tumour cell line panel, 48 h
[1] = tested on: RPMI-8226 leukemia
[2] = tested on: SK-OV-3 ovarian
[3] = tested on: SNB-19 CNS
[4] = tested on: NCI-H522 lung
[5] = tested on: HCT-15 colon
[6] = tested on: SF-539 CNS
[7] = tested on: SN12C renal
[8] = tested on: SF-268 CNS
[9] = tested on: ACHN renal
[10] = tested on: MOLT-4 leukemia

Row | SMILES | GI50 [1] | TGI [1] | GI50 [2] | TGI [2] | GI50 [3] | TGI [3] | GI50 [4] | TGI [4] | GI50 [5] | TGI [5] | GI50 [6] | TGI [6] | GI50 [7] | TGI [7] | GI50 [8] | TGI [8] | GI50 [9] | TGI [9] | GI50 [10] | TGI [10]
1 | Nc1[nH]nc2nc(-c3cccs3)cc(C(F)(F)F)c12 | > 25 µM | > 25 µM | > 25 µM | > 25 µM | > 25 µM | > 25 µM | > 13.9 µM | > 25 µM | > 25 µM | > 25 µM | > 25 µM | > 25 µM | > 25 µM | > 25 µM | > 25 µM | > 25 µM | > 21.6 µM | > 25 µM | – | –
2 | O=C(Nc1ccc(Cl)cc1)Nc1ccc(Nc2nncc3ccccc23)cc1 | 2.5 µM | 8.75 µM | 3.05 µM | 17.7 µM | 3.67 µM | 19 µM | 1.32 µM | 8.81 µM | 1.59 µM | 11.8 µM | 2.88 µM | 11.5 µM | 4.58 µM | 37.2 µM | 3.19 µM | 28.1 µM | 1.12 µM | 7.12 µM | 2.09 µM | 6.36 µM
3 | COc1cc(C(=O)NC2CCN(C)CC2)c(F)cc1Nc1ncc2c(n1)N(C1CCCC1)CC(F)(F)C(=O)N2C | < 0.022 µM | 3.26 µM | < 0.0132 µM | 1.02 µM | < 0.0281 µM | 17.1 µM | < 0.01 µM | < 0.0208 µM | < 0.0213 µM | 14 µM | < 0.0181 µM | 1.3 µM | 0.0604 µM | 14.4 µM | < 0.025 µM | 12.1 µM | < 0.0378 µM | 14.4 µM | 0.0171 µM | 2.53 µM
4 | O=C1c2c(O)cccc2C(C2OC(CO)C(O)C(O)C2O)c2cc(CO)cc(O)c21 (configuration not stated) | – | > 100 µM | – | > 100 µM | – | > 100 µM | – | > 100 µM | – | > 100 µM | – | > 100 µM | – | > 100 µM | – | > 100 µM | – | > 100 µM | – | > 100 µM
5 | Cc1ccc(Nc2nc(C)c(C(/C=C/c3ccc(/C=C/C(=N/NC(=O)C[n+]4ccccc4)c4sc(Nc5ccc(C)cc5[N+](=O)[O-])nc4C)cc3)=N\NC(=O)C[n+]3ccccc3)s2)c([N+](=O)[O-])c1 | – | – | – | > 100 µM | – | > 100 µM | – | > 100 µM | – | > 100 µM | – | > 100 µM | – | > 100 µM | – | > 100 µM | – | > 100 µM | – | > 100 µM
6 | CCSCCCN(CCCSCC)CCCSCC | – | – | – | > 100 µM | – | > 100 µM | – | > 100 µM | – | > 100 µM | – | > 100 µM | – | > 100 µM | – | > 100 µM | – | – | – | > 100 µM
7 | CCCOC(=O)N1CCN(/[N+]([O-])=N/Oc2ccc([N+](=O)[O-])cc2[N+](=O)[O-])CC1 | 0.49 µM | 2.41 µM | – | – | 5.08 µM | 18.7 µM | 3.16 µM | 15.7 µM | 2.2 µM | 5.65 µM | 0.273 µM | 0.648 µM | 2.58 µM | 6.94 µM | 3.19 µM | 11.1 µM | 1.84 µM | 3.79 µM | 2.35 µM | > 100 µM
8 | CCOc1cc2ncc(C#N)c(Nc3ccc(OCc4ccccn4)c(Cl)c3)c2cc1NC(=O)/C=C/CN(C)C | 1.11 µM and 0.695 µM | 4.38 µM and 3.79 µM | < 0.01 µM and 0.00218 µM | – | 2.52 µM | 22.9 µM and > 10 µM | < 0.01 µM and 0.00351 µM | 0.0818 µM and 0.706 µM | 0.475 µM and 0.404 µM | 7.97 µM and 5.67 µM | 4.24 µM and > 4.3 µM | 11.5 µM and > 9.31 µM | 0.274 µM and 0.236 µM | 4.6 µM and > 10 µM | 0.563 µM | > 10 µM | 0.0358 µM and 0.0817 µM | 4.14 µM and > 10 µM | 0.672 µM and 0.463 µM | 20.3 µM and > 5.61 µM
9 | COc1ccc2c(c1)C(=O)c1c-2c(N(C)C)nc2ccccc12 | > 100 µM | > 100 µM | > 100 µM | > 100 µM | > 100 µM | > 100 µM | > 100 µM | > 100 µM | > 100 µM | > 100 µM | > 100 µM | > 100 µM | 95.3 µM | > 100 µM | 77.8 µM | > 100 µM | > 100 µM | > 100 µM | > 100 µM | > 100 µM
10 | C/C=C(\C)C(=O)O[C@H]1C=CC(=O)O[C@@H]1CC[C@H](O)[C@H](C)O | 22.8 µM | 58.7 µM | > 100 µM | > 100 µM | 98.9 µM | > 100 µM | 18 µM | 43.4 µM | 28.6 µM | > 80.3 µM | 30.9 µM | > 100 µM | 47 µM | > 100 µM | 28.8 µM | > 100 µM | 33.4 µM | > 92.8 µM | 1.99 µM | > 100 µM
11 | O=[N+]([O-])c1cccc([As]=[As]c2cccc([N+](=O)[O-])c2)c1 (configuration not stated) | 0.0495 µM | 0.18 µM | 0.177 µM | 0.317 µM | 0.145 µM | 0.279 µM | 0.0154 µM | 0.0304 µM | 0.0437 µM | 0.174 µM | 0.0737 µM | 0.201 µM | 0.11 µM | 0.239 µM | 0.0819 µM | 0.228 µM | 0.111 µM | 0.242 µM | 0.104 µM | 0.353 µM
12 | C/C=C(/COC(C)=O)C(=O)OC1C=C(C=O)C(C)(C)C=C1C (configuration not stated) | – | – | – | > 100 µM | – | > 100 µM | – | > 100 µM | – | > 100 µM | – | > 100 µM | – | > 100 µM | – | > 100 µM | – | > 100 µM | – | –
13 | C[Si](C)(C)c1ccc(-c2sc(-c3ccc([Si](C)(C)C)s3)c3c2C[Si]2(C3)Cc3c(-c4ccc([Si](C)(C)C)s4)sc(-c4ccc([Si](C)(C)C)s4)c3C2)s1 | – | > 100 µM | – | > 100 µM | – | > 100 µM | – | > 100 µM | – | > 100 µM | – | > 100 µM | – | > 100 µM | – | > 100 µM | – | > 100 µM | – | > 100 µM
14 | NC(=S)N/N=C/c1ncccc1N | 1.45 µM | > 100 µM | 3.24 µM | 51.3 µM and > 10 µM | 1.78 µM | > 84.9 µM | 1.71 µM | 6.62 µM and > 10 µM | 3.14 µM | > 100 µM | – | 1.23 µM and 0.673 µM | 0.789 µM | 16.5 µM and > 10 µM | 0.731 µM | 51.9 µM and > 8.29 µM | – | – | 1.04 µM | 44.8 µM and > 10 µM
